Source: PMC7549094 (Journal of Medicinal Chemistry, 2020)

What was measured:
hr NET = hr NET (Homo sapiens, UniProt P23975); assay: receptor profile (Table S4); assay type: binding
ov COX-1 = target: T1, ov COX-1 (Ovis aries, UniProt P05979); assay: receptor profile (Table S4); assay type: biochemical, ovine
T1 sequence (P05979 25-600): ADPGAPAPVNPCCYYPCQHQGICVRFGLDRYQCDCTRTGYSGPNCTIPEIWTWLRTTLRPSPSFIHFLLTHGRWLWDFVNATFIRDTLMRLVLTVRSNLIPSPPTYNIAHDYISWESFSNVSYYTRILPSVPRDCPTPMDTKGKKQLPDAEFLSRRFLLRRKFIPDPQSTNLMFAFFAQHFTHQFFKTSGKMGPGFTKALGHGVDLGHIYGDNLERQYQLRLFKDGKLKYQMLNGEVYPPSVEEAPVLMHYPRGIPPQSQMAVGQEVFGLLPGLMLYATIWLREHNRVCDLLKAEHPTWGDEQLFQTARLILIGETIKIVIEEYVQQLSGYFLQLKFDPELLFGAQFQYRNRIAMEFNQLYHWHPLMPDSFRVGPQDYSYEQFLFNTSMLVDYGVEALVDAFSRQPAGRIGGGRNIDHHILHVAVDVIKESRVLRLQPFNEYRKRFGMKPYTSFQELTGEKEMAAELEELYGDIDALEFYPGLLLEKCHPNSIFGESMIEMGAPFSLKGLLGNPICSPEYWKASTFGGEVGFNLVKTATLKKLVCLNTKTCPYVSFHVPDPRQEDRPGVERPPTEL

[1] = pharmacokinetics in cynomolgus monkey; assay type: in vivo; settings: male cynomolgus monkey
Protocol: In Vivo Intravenous PK Study in Non-human Primates. The IV PK study in non-human primates was carried out at Covance research facility in Greenfield, Indiana. The research facility is accredited by AAALAC (Association for Assessment and Accreditation of Laboratory Animal Care). The male Cynomolgus monkeys were approximately 4.5 years of age and weighed 4.2 to 5.0 kg. 1 was administered […]
75% polyethylene glycol (PEG300) as described in the earlier section. Doses were administered once by intravenous injection via the saphenous vein at a dose of 0.3 mg/kg with a dosing volume of 0.1 ml/kg.
Clinical observations and food consumption determinations were performed on all animals. Blood samples for PK analysis were collected from all animals via the femoral vein approximately 0.083, 0.25, […]
In Vivo Oral PK Study in Non-human Primates. The PO PK study in non-human primates was conducted at a Novartis facility using Non-naïve male Cynomolgus monkeys weighing 3.8 to 4.0 kg. The monkeys were fasted overnight and fed 2 hours post-dose. 1 was formulated in a suspension of 0.5% […]
gavaged with 5 mL/kg of the suspension for a total dose of 10 mg/kg. The gavage tubing was flushed with 5 mL of water to ensure the gavage tubing was cleared of the formulation. Blood samples for PK analysis were collected from all animals via the saphenous veins approximately 0.25, 0.5, 1, 2, 4, 7, 24, 48, and 72 hours post-dose.

hr CCKa = target: T2, hr CCKa (Homo sapiens, UniProt P32238); assay: receptor profile (Table S4); assay type: binding
T2 sequence (P32238 1-428): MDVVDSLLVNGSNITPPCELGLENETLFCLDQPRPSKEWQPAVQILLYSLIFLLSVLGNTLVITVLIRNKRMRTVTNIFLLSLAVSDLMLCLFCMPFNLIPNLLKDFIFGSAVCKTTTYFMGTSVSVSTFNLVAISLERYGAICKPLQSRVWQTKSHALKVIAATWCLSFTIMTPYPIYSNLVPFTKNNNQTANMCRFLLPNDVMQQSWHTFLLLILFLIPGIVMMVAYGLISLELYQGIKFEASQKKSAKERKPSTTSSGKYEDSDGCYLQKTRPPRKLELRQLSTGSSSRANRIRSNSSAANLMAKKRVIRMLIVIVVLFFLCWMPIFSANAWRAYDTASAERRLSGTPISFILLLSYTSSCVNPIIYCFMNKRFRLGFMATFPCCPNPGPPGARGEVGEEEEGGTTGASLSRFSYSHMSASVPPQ

BSEP = BSEP (Homo sapiens, UniProt O95342); assay: receptor profile (Table S4), first BSEP line
BSEP, sequence (O95342 whole entry): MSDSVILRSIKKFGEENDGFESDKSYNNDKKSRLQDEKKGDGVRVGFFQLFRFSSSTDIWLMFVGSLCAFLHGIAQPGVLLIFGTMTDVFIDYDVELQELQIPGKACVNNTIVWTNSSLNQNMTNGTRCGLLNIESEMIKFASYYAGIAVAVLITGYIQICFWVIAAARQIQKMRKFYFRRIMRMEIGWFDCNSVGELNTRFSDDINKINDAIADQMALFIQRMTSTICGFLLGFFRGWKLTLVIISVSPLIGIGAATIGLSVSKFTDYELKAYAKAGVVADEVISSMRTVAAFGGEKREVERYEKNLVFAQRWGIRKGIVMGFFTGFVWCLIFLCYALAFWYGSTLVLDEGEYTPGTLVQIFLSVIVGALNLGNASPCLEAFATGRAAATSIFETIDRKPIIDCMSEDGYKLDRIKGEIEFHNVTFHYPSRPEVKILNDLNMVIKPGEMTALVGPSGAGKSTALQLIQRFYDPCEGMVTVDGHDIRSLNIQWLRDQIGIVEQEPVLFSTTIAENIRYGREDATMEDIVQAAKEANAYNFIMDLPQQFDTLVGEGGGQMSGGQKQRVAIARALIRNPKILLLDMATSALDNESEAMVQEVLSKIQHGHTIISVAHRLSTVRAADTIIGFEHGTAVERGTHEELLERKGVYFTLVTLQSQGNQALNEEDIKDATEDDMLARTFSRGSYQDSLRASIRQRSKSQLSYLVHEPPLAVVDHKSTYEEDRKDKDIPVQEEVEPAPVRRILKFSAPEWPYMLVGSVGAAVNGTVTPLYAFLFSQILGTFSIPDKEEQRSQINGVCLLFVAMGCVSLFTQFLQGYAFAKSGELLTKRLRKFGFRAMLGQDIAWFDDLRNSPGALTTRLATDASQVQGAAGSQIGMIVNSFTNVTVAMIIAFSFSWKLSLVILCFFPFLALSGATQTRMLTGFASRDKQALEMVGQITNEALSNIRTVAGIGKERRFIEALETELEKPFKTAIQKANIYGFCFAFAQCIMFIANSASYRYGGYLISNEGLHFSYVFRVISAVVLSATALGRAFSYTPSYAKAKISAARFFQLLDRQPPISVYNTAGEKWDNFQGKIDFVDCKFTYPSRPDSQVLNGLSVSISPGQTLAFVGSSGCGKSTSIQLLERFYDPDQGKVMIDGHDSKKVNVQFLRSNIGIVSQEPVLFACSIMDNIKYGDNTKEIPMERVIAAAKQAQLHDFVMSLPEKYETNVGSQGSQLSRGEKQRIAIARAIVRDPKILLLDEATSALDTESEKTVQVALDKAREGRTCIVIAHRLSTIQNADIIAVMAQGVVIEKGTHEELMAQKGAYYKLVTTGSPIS

hr CB1 ag = hr CB1 ag (Homo sapiens, UniProt P21554); assay: receptor profile (Table S4); assay type: biochemical
hr CB1 ag, sequence (P21554 whole entry): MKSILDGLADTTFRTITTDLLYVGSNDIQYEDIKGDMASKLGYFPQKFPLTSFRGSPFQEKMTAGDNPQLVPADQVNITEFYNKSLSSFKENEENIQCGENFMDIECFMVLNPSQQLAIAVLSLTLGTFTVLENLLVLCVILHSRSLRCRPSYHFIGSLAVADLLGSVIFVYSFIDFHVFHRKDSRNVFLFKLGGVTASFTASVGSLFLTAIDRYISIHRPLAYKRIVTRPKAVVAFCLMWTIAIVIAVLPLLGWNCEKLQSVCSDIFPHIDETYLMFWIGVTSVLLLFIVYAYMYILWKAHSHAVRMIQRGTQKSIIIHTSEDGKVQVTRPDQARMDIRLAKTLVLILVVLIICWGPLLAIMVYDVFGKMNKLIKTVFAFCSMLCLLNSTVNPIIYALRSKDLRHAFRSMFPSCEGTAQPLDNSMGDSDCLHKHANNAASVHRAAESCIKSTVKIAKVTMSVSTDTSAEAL

hr 5-HT3 = target: T3, hr 5-HT3 (Homo sapiens, UniProt P46098); assay: receptor profile (Table S4); assay type: binding
T3 sequence (P46098 24-478): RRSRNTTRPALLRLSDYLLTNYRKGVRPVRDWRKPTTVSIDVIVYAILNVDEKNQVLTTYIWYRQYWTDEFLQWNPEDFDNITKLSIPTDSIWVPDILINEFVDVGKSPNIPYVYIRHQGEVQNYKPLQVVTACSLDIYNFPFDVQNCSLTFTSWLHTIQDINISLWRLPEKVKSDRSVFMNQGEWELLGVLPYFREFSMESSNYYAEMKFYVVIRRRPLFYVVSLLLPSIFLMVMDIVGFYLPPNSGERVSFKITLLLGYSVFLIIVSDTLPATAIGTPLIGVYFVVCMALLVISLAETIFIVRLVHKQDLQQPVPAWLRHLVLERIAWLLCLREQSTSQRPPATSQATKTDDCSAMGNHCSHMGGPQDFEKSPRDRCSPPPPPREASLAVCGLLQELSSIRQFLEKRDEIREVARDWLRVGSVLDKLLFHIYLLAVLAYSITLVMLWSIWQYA

hr NET, sequence (P23975 whole entry): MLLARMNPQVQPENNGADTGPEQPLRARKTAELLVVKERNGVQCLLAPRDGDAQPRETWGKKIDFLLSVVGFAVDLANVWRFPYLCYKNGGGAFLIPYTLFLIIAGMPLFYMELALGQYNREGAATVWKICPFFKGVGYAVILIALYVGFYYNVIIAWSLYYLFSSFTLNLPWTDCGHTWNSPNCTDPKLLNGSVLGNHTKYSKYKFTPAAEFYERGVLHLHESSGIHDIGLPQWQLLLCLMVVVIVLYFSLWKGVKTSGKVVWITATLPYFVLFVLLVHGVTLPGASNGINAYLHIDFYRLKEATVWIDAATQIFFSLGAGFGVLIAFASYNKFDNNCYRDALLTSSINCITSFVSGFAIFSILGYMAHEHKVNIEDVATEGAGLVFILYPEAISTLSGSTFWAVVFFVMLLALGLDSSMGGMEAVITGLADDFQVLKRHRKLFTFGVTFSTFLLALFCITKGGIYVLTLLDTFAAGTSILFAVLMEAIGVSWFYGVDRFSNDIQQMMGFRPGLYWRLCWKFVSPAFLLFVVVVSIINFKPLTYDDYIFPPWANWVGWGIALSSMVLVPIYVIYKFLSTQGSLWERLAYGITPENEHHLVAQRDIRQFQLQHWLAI

Which EC50/IC50 (hr NET; hr NET) does the source give for `Cc1nc(C)c(C(=O)Nc2ccc(F)c(-c3nc4ncc(-c5ncccc5C)cn4n3)c2)o1` [compound 1, N-(4-Fluoro-3-(6-(3-methylpyridin-2-yl)-[1,2,4]triazolo[1,5-a]pyrimidin-2-yl)phenyl)-2,4-dimethyloxazole-5-carboxamide] here?
The EC50/IC50 was > 30 µM.

What about the inhibition at 10 µM (hr NET; read-out: % inh/act @ 10 µM) of the same molecule?
The inhibition at 10 µM was 19%.

And the inhibition at 30 µM (hr NET; read-out: % inh/act @ 30 µM)?
Its inhibition at 30 µM is 24%.

What about the EC50/IC50 (ov COX-1; ov COX-1) of the same molecule?
Its EC50/IC50 is > 30 µM.

And the inhibition at 10 µM (ov COX-1; read-out: % inh/act @ 10 µM)?
The inhibition at 10 µM was 16%.

And the inhibition at 30 µM (ov COX-1; read-out: % inh/act @ 30 µM)?
The inhibition at 30 µM was 14%.

And the MRT ([1]; in vivo, 0.3 mg/kg IV)?
Its MRT is 9.7 h.

And the bioavailability ([1]; in vivo, 0.3 mg/kg IV and 10 mg/kg PO)?
Its bioavailability is 27%.

What about the clearance ([1]; in vivo, 0.3 mg/kg IV, fumarate salt) of the same molecule?
Its clearance is 0.9 mL/min/kg.

And the half-life ([1]; in vivo, 0.3 mg/kg IV, read-out: T1/2 IV (converted))?
The half-life was 582 min.

What about the Vd ([1]; in vivo, 0.3 mg/kg IV, read-out: Vss) of the same molecule?
The Vd was 0.5 L/kg.

And the “DN AUC PO” value ([1]; 10 mg/kg PO, dose-normalized)?
Its value is 12 µM·h.

And the “DN Cmax PO” value ([1]; 10 mg/kg PO, dose-normalized)?
The value was 1.0 µM.

What about the EC50/IC50 (hr CCKa; hr CCKa) of the same molecule?
Its EC50/IC50 is > 30 µM.

What about the inhibition at 10 µM (hr CCKa; read-out: % inh/act @ 10 µM) of the same molecule?
Its inhibition at 10 µM is 12%.

And the inhibition at 30 µM (hr CCKa; read-out: % inh/act @ 30 µM)?
The inhibition at 30 µM was 50%.

What about the inhibition at 10 µM (BSEP) of the same molecule?
The inhibition at 10 µM was 28%.

And the inhibition at 30 µM (BSEP)?
Its inhibition at 30 µM is 45%.

And the “% inh/act @ 10 µM” value (hr GABAA ag)?
The value was -11%.

And the “% inh/act @ 30 µM” value (hr GABAA ag)?
The value was -2%.

What about the EC50/IC50 (hr CB1 ag; hr CB1 ag) of the same molecule?
The EC50/IC50 was > 30 µM.

And the inhibition at 10 µM (hr CB1 ag; read-out: % inh/act @ 10 µM)?
The inhibition at 10 µM was 0%.

What about the inhibition at 30 µM (hr CB1 ag; read-out: % inh/act @ 30 µM) of the same molecule?
Its inhibition at 30 µM is 3%.

What about the EC50/IC50 (hr 5-HT3; hr 5-HT3) of the same molecule?
Its EC50/IC50 is > 30 µM.

And the inhibition at 10 µM (hr 5-HT3; read-out: % inh/act @ 10 µM)?
Its inhibition at 10 µM is 22%.

What about the inhibition at 30 µM (hr 5-HT3; read-out: % inh/act @ 30 µM) of the same molecule?
Its inhibition at 30 µM is 19%.
